How the values were obtained:
[1] = tested on: Rhipicephalus Sanguineus (nymphs); test: Arena test in vitro against Rhipicephalus sanguineus (nymphs); format: in vivo; details: even up to a dilution of 10 μg/cm^2
Protocol: (§1) This method is carried out in titre plates having 6 wells with a cross-section of 5 cm each, using a computer-supported video system. Each well of the titre plate is lined with a circular filter paper or another suitable carrier material. The substance of formula I to be tested is dissolved in methanol, acetonitrile or another suitable solvent, with ultrasound treatment and heating being employed for poorly-soluble substances. In an amount of 1 to 100 μg/cm^2, the dissolved test substance is placed in the centre of the filter paper on a quadrant or circular area of ca. 2.4 cm^2 radius. 4 of the 6 wells are filled with different test substances or with the same test substance in different dilutions (e.g. 1, 3.2, 5, 10 and 20 μg/cm^2). The 5th well is treated with DEET (N,N-diethyl-m-toluamide) as standard substance. The 6th well is filled with the pure solvent and serves as a control. 60 to 100 larvae or 25 to 50 nymphs or 10 to 25 adults of the parasite to be tested, e.g. ticks, are added to each filter paper, and the system is covered with a pane of glass and positioned under a video camera. At intervals of 5 seconds, the video camera takes individual pictures of all 6 wells. […] 6 or with the standard in the 5th well. […] In this way, neutral and deterring substances are determined. At the same time, the duration of activity of the test substance is determined and compared with that of the standard. By plotting all the images for each individual well over one another, different areas of density are obtained. This represents the frequency at which the parasites visit certain places. This frequency is evaluated statistically and thus quantitatively by the Willcoxon method in a comparison with the control and with the standard.
Arena Test in vitro Against Rhipicephalus Sanguineus (nymphs)
A test is carried out analogously to example B using ca. 40 to 50 nymphs.

ticks = test: Arena test method for testing vermin-deterring substances; format: in vivo; details: 1 to 100 μg/cm^2 on filter paper; video evaluation against solvent control and DEET standard
Protocol: Arena Test Method for Testing Vermin-deterring Substances
(§2) This method is carried out in titre plates having 6 wells with a cross-section of 5 cm each, using a computer-supported video system. Each well of the titre plate is lined with a circular filter paper or another suitable carrier material. The substance of formula I to be tested is dissolved in methanol, acetonitrile or another suitable solvent, with ultrasound treatment and heating being employed for poorly-soluble substances. In an amount of 1 to 100 μg/cm^2, the dissolved test substance is placed in the centre of the filter paper on a quadrant or circular area of ca. 2.4 cm^2 radius. 4 of the 6 wells are filled with different test substances or with the same test substance in different dilutions (e.g. 1, 3.2, 5, 10 and 20 μg/cm^2). The 5th well is treated with DEET (N,N-diethyl-m-toluamide) as standard substance. The 6th well is filled with the pure solvent and serves as a control. 60 to 100 larvae or 25 to 50 nymphs or 10 to 25 adults of the parasite to be tested, e.g. ticks, are added to each filter paper, and the system is covered with a pane of glass and positioned under a video camera. At intervals of 5 seconds, the video camera takes individual pictures of all 6 wells. For a qualitative evaluation, these images are observed in a time-lapse as a continuous film, optically following the movements of the parasites on the filter paper and comparing them with the movements in the control well no. 6 or with the standard in the 5th well. A qualitative observation is thus made as to whether the test parasites move evenly over the whole surface of the filter paper and ignore the test substance, or whether and over what period they avoid the treated zone, and what influence the dilution of the test substance has on the behaviour of the test parasites. In this way, neutral and deterring substances are determined. At the same time, the duration of activity of the test substance is determined and compared with that of the standard. By plotting all the images for each individual well over one another, different areas of density are obtained. This represents the frequency at which the parasites visit certain places. This frequency is evaluated statistically and thus quantitatively by the Willcoxon method in a comparison with the control and with the standard. Compounds of Table 1, for example nos.

[2] = tested on: Amblyomma Hebraeum or Variegatum (nymphs); test: Arena test in vitro against Amblyomma hebraeum or variegatum (nymphs); format: in vivo; details: even up to a dilution of 3.2 μg/cm^2
Protocol: as §2
Arena Test in vitro Against Amblyomma Hebraeum or Variegatum (nymphs)
The test is carried out as described above, with ca. 25 to 50 nymphs being added per well. 10 mg of dissolved test substance is applied to an area of 2.4 cm^2 radius. […] 1.26 to 1.36, 1.40, 1.45, 1.47, 1.95, 1.96, 1.97, 1.137, and 1.139, even up to a dilution of 3.2 μg/cm^2.

[3] = tested on: Boophilus Microplus Biarra (larvae); test: Arena test in vitro against Boophilus microplus Biarra (larvae); format: in vivo; details: even up to a dilution of 10 μg/cm^2
Protocol: as §1
Arena Test in vitro Against Boophilus Microplus Biarra (larvae)
The test is carried out as described above, with ca. 60 to 100 larvae being added per well. 10 mg of dissolved test substance is applied to an area of 2.4 cm^2 radius.

[4] = tested on: certain plant damaging insects; details: cited from earlier work

Row | Compound | long-term deterring activity [1] | vermin-deterring activity in the arena test (ticks) | long-term deterrent activity [2] | long-term deterring activity [3] | activity as a deterrent [4]
1 | OC(COCc1ccccc1)C1CCCCN1 (stereo not drawn) [Compound 1.137] | Particularly marked long-term activity | excellent activity | Particularly marked long-term activity | Particularly marked long-term activity | –
2 | CCCCCCCCCCCCC(O)C1CCCCN1 (stereo not drawn) [Compound 1.29, 2-[n-(1-hydroxytridecyl)]piperidine] | Particularly marked long-term activity | – | – | – | –
3 | OC(c1ccccc1)C1CCCCN1 (stereo not drawn) [Compound 1.40, 2-[(1-phenyl)(1-hydroxy)methyl]piperidine] | Particularly marked long-term activity | – | Particularly marked long-term activity | Particularly marked long-term activity | –
4 | COc1ccc(C(O)C2CCCCN2)cc1 (stereo not drawn) [Compound 1.97, 2-[(1-[4-methoxyphenyl])(1-hydroxy)methyl]piperidine] | – | excellent activity | Particularly marked long-term activity | Particularly marked long-term activity | –
5 | CCCCCCCCCCCCCCC(O)C1CCCCN1 (stereo not drawn) [Compound 1.32, 2-[n-(1-hydroxypentade-cyl)]piperidine] | Particularly marked long-term activity | – | – | – | –
6 | CC(C)c1ccc(C(O)C2CCCCN2)cc1 (stereo not drawn) [Compound 1.95, 2-[(1-[4-isopropyl-phenyl])(1-hydroxy)methyl]piperidine] | – | excellent activity | Particularly marked long-term activity | Particularly marked long-term activity | –
7 | CC1(C)CCCC(C(O)c2ccc(Cl)cc2)N1 (stereo not drawn) [Compound 1.101, 6,6-dimethyl-2-[(1-[4-chlorphenyl])(1-hydroxy)methyl]piperidine] | – | excellent activity | – | – | –
8 | OC[C@H]1NC[C@H](O)[C@@H](O)[C@@H]1O [deoxynojirimicin] | – | – | – | – | slight activity
9 | CN1CCCCC1C(O)c1ccccc1 (stereo not drawn) [Compound 1.45, N-me-thyl-2-[(1-phenyl)(1-hydroxy)methyl]piperidine] | Particularly marked long-term activity | excellent activity | Particularly marked long-term activity | Particularly marked long-term activity | –
10 | Cc1ccc(C(O)C2CCCCN2)cc1 (stereo not drawn) [Compound 1.89, 2-[(1-[4-methylphenyl])(1-hydroxy)methyl]piperidine] | – | excellent activity | – | – | –
11 | CCCCCCCCCCC(O)C1CCCCN1C(=O)OCC (stereo not drawn) [Compound 1.141, N -ethoxycarbonyl--2-[(1-hydroxy)(1-undecycl)]piperidine] | – | – | – | Particularly marked long-term activity | –
12 | CCCCCCCCCCC(O)C1CCCCN1C(C)=O (stereo not drawn) [Compound 1.140, N-acetyl-2-[(1-hydroxy)(1-undecyl)]piperidine] | – | – | – | Particularly marked long-term activity | –
13 | OC(c1ccccc1)C1CCCCN1 (stereo not drawn) [Compound 1.44, 2-[(1-phenyl)(1-hydroxy)methyl]piperidine] | – | excellent activity | – | – | –
14 | CCCCCCCCCCC(O)C1CCCCN1 (stereo not drawn) [Compound 1.27, 2-[n-(1-hydroxyundecyl)]piperidine] | Particularly marked long-term activity | – | – | – | –
15 | CCCCCCCCCCCCCCCCCCC(O)C1CCCCN1 (stereo not drawn) [Compound 1.36, 2-[n-(1-hydroxynonadecyl)]piperidine] | Particularly marked long-term activity | – | – | – | –
16 | CC1(C)CCCC(C(O)c2ccc(Cl)cc2)N1 (stereo not drawn) [Compound 1.139, 6,6-dimethyl-2-[(1-[4-chlorphenyl])(1-hydroxy)methyl]piperidine] | Particularly marked long-term activity | excellent activity | Particularly marked long-term activity | Particularly marked long-term activity | –
17 | CC(C)c1ccc(C(O)C2CCCCN2C)cc1 (stereo not drawn) [Compound 1.96, N-methyl-2-[(1-[4-isopropylphenyl])(1-hydroxy)methyl]-piperidine] | Particularly marked long-term activity | excellent activity | Particularly marked long-term activity | Particularly marked long-term activity | –
18 | Cc1ccc(C(O)C2CCCCN2C)cc1 (stereo not drawn) [Compound 1.87, N-methyl-2-[(1-[4-methylphenyl])-(1-hydroxy)methyl]piperidine] | – | excellent activity | – | – | –
19 | CCCCCCCCCCCCCCCCC(O)C1CCCCN1 (stereo not drawn) [Compound 1.34, 2-[n-(1-hydroxyheptadecyl)]piperidine] | Particularly marked long-term activity | – | – | – | –
20 | OC(c1ccccc1)(c1ccc2c(c1)CCO2)C1CCCCN1 (stereo not drawn) [Compound 1.59] | Particularly marked long-term activity | excellent activity | – | – | –
